Experimental data published in patent publication US20080069849A1, “Novel Antimicrobial Peptides” (Dermagen AB, priority 2004, published 2008).
Read-outs that look alike come from different tables or passages of the source. Where a SMILES comes first, the peptide text is derived from it. Where no end group is shown, it is not given here. [ ]: non-standard residue; d: D form.

How the values were obtained:
erythrocytes = experiment: Hemolysis assay (Example 11); assay type: cell-based; set-up: % Hemolysis Mean: dose or concentration left out as unconfirmed
Experimental: EDTA-blood was centrifuged at 800 g for 10 min, whereafter plasma and buffy coat were removed. The erythrocytes were washed three times and resuspended in 5% PBS, pH 7.4. The cells were then incubated with end-over-end rotation for 1 h at 37° C. in the presence of peptides ([…]). 2% Triton X-100 (Sigma-Aldrich) served as positive control. The samples were then centrifuged at 800 g for 10 min. The absorbance of hemoglobin release was measured at λ 540 nm and is in the plot expressed as % of TritonX-100 induced hemolysis.

Escherichia coli 37.4 = experiment: Radial diffusion assay (RDA), E. coli 37.4; assay type: cell-based; details: zone of inhibition; Table 2, second generation PEPscreen
Experimental: (§1) Escherichia coli 37.4 isolate was originally obtained from a patient with a chronic venous ulcer, while Staphylococcus aureus isolate BD14312 was from a patient with atopic dermatitis. Staphylococcus aureus ATCC29213 and Candida albicans ATCC90028 were both obtained from the Clinical Bacteriology Department at Lund University hospital.
(§2) Essentially as described earlier (Lehrer et al., J Immunol Methods 137, 167-173, 1991, Andersson et al., Eur J Biochem 271, 1219-1226, 2004) bacteria were grown to mid-logarithmic phase in 10 ml of full-strength (3% w/v) trypticase soy broth (TSB) (Becton-Dickinson, Cockeysville, Md.). The microorganisms were then washed once with 10 mM Tris, pH 7.4.4×10^6 bacterial colony forming units were added to 15 ml of the underlay agarose gel, consisting of 0.03% (w/v) TSB, 1% (w/v) low electroendosmosis type (EEO) agarose (Sigma, St Louis Mo.) and 0.02% (v/v) Tween 20 (Sigma). The underlay was poured into a ø 144 mm petri dish. After agarose solidification, 4 mm-diameter wells were punched and 6 μl of test sample was added to each well. Plates were incubated at 37° C. for 3 hours to allow diffusion of the peptides. The underlay gel was then covered with 15 ml of molten overlay (6% TSB and 1% Low-EEO agarose in dH2O). Antimicrobial activity of a peptide is visualized as a zone of clearing around each well after 18-24 hours of incubation at 37° C.

[1] = tested on: Staphylococcus aureus ATCC29213; experiment: Radial diffusion assay (RDA), S. aureus ATCC29213; assay type: cell-based; details: zone of inhibition; Table 2, second generation PEPscreen
Experimental: as §1, §2

P. aeruginosa 27.1 = experiment: Radial diffusion assay analysis of CNY variants (Example 4); assay type: cell-based, Pseudomonas aeruginosa; details: peptides 100 μM
Experimental: Radial diffusion assays (RDA) were performed essentially as described earlier (Andersson et al., Eur J Biochem, 2004, 271:1219-1226). Briefly, bacteria (P. aeruginosa 27.1) were grown to mid-logarithmic phase in 10 ml of full-strength (3% w/v) trypticase soy broth (TSB) (Becton-Dickinson, Cockeysville, Md.). The microorganisms were washed once with […] Tris, pH 7.4. 4×10^6 bacterial cfu or 1×10^5 fungal cfu was added to 5 ml of the underlay agarose gel, consisting of 0.03% (w/v) TSB, 1% (w/v) low-electroendosmosistype (Low-EEO) agarose (Sigma, St Louise Mo.) and a final concentration of 0.02% (v/v) Tween 20 (Sigma). The underlay was poured into a Ø 85 mm petri dish. After agarose solidified, 4 mm-diameter wells were punched and 6 μl of test sample was added to each well. Plates were incubated at 37° C. for 3 hours to allow diffusion of the peptides. The underlay gel was then covered with 5 ml of molten overlay (6% TSB and 1% Low-EEO agarose in dH2O). Antimicrobial activity of a peptide is visualized as a clear zone around each well after 18-24 hours of incubation at 37° C. Synthetic peptides were tested in concentrations of 100 μM to determine the antibacterial effect (FIG. 8). CNY21; […], CNY20; […], CNY21R-S; […], CNY20R-S; […], CNY21H-L: […], CNY21H-K: […], CNY21H-P: […].

[2] = Pore formation / carboxyfluorescein leakage of liposomes; details: 10 mM Tris, pH 7.4
Experimental: Peptides were tested for binding to lipid bilayers, resulting pore formation and peptide secondary structure in the lipid membranes. Lipid membranes investigated included both zwitterionic ones (containing phosphatidylcholine) and anionic ones (containing mixtures of phosphatidylcholine and phosphatidic acid). Lipid membranes were deposited at silica, and the binding of the peptides from 10 mM Tris, pH 7.4, was directly monitored by ellipsometry. […] Pore formation in these liposomes were determined by including carboxyfluorescein in the liposomes and following the fluorescence intensity increase on addition of peptides to the liposomes. Furthermore, the secondary structure of the peptides in the liposome lipid membranes was probed by circular dichroism.

Compound	% Hemolysis Mean (erythrocytes; 1 h) [%]	other results
CC[C@@H](C)[C@@H](NC(=O)[C@@H](Cc1ccc(O)cc1)NC(=O)[C@@H](CC(N)=O)NC(=O)[C@H](N)CS)C(=O)N[C@@H](C(=O)N[C@H](CCC(=O)O)C(=O)N[C@H](CC(C)C)C(=O)N[C@H](CCCNC(=N)N)C(=O)N[C@H](CCCNC(=N)N)C(=O)N[C@H](CCC(N)=O)C(=O)N[C@H](Cc1c[nH]cn1)C(=O)N[C@H](C)C(=O)N[C@H](CCCNC(=N)N)C(=O)N[C@H](C)C(=O)N[C@H](CO)C(=O)N[C@H](Cc1c[nH]cn1)C(=O)N[C@H](CC(C)C)C(=O)NCC(=O)N[C@H](CC(C)C)C(=O)N[C@H](C)C(=O)O)[C@H](C)O [Peptide 182] (H-[dC][dN][dY][dI][dT][dE][dL][dR][dR][dQ][dH][dA][dR][dA][dS][dH][dL]G[dL][dA]-OH; N-terminus and C-terminus assumed)	2.659	–
CC[C@@H](C)[C@@H](NC(=O)[C@@H](Cc1ccc(O)cc1)NC(=O)[C@@H](CC(N)=O)NC(=O)[C@H](N)CS)C(=O)N[C@@H](C(=O)N[C@H](CCC(=O)O)C(=O)N[C@H](CC(C)C)C(=O)N[C@H](CC(C)C)C(=O)N[C@H](CCCNC(=N)N)C(=O)N[C@H](CCC(N)=O)C(=O)N[C@H](CC(C)C)C(=O)N[C@H](C)C(=O)N[C@H](CCCNC(=N)N)C(=O)N[C@H](C)C(=O)N[C@H](CO)C(=O)N[C@H](CCCCN)C(=O)N[C@H](CCCCN)C(=O)NCC(=O)N[C@H](CC(C)C)C(=O)N[C@H](C)C(=O)O)[C@H](C)O [Peptide 183] (H-[dC][dN][dY][dI][dT][dE][dL][dL][dR][dQ][dL][dA][dR][dA][dS][dK][dK]G[dL][dA]-OH; N-terminus and C-terminus assumed)	5.128	–
CC[C@@H](C)[C@@H](NC(=O)[C@@H](Cc1ccc(O)cc1)NC(=O)[C@@H](CC(N)=O)NC(=O)[C@H](N)CS)C(=O)N[C@H](CCC(=O)O)C(=O)N[C@H](CCC(=O)O)C(=O)N[C@H](CC(C)C)C(=O)N[C@H](CCCNC(=N)N)C(=O)N[C@H](CCCNC(=N)N)C(=O)N[C@H](CCC(N)=O)C(=O)N[C@H](CC(C)C)C(=O)N[C@H](C)C(=O)N[C@H](CCCNC(=N)N)C(=O)N[C@H](C)C(=O)N[C@H](CC(C)C)C(=O)N[C@H](Cc1c[nH]cn1)C(=O)N[C@H](CCCCN)C(=O)NCC(=O)N[C@H](CC(C)C)C(=O)N[C@H](C)C(=O)O [Peptide 184] (H-[dC][dN][dY][dI][dE][dE][dL][dR][dR][dQ][dL][dA][dR][dA][dL][dH][dK]G[dL][dA]-OH; N-terminus and C-terminus assumed)	3.235	–
Ac-CNYIEELRRQLARALHKGLA-NH2 [Peptide 181]	4.861	RDA (mm) E. coli 37.4 Mean (Escherichia coli 37.4): 4.330 mm; RDA (mm) S. aureus ATCC29213 Mean [1]: 4.24 mm
Ac-CNYITELLRQLARASKKGLA-NH2 [Peptide 180]	5.447	RDA (mm) E. coli 37.4 Mean (Escherichia coli 37.4): 5.933 mm; RDA (mm) S. aureus ATCC29213 Mean [1]: 0 mm
Ac-CNYITELRRQHARASHLGLA-NH2 [Peptide 179]	2.495	RDA (mm) E. coli 37.4 Mean (Escherichia coli 37.4): 2.677 mm; RDA (mm) S. aureus ATCC29213 Mean [1]: 4.03 mm
CKYITLLRRQLLRALKRGLR [Peptide 73]	–	hemolytic activity (erythrocytes): low hemolytic activity
CNYIEELKRQLARALHKGLA [Peptide 145]	2.495	–
CNYIEELKRQLARALKKGLA [Peptide 146]	2.521	–
CNYIEELLRQKARALHKGLA [Peptide 162]	2.056	–
CNYIEELLRQKARALKKGLA [Peptide 164]	2.340	–
CNYIEELLRQLAPASHKGLA [Peptide 148]	–	RDA (mm) E. coli 37.4 Mean (Escherichia coli 37.4): 2.900 mm; RDA (mm) S. aureus ATCC29213 Mean [1]: 0.99 mm; % Hemolysis Mean (erythrocytes): 1.454%
CNYIEELLRQLARARHKGLA [Peptide 157]	1.282	–
CNYIEELLRQLARARKKGLA [Peptide 159]	1.841	–
CNYIEELLRQLARASKKGLA [Peptide 149]	1.506	–
CNYIEELLRQLARATHKGLA [Peptide 151]	1.626	–
CNYIEELLRQLARATKKGLA [Peptide 153]	1.755	–
CNYIEELLRQRARALHKGLA [Peptide 166]	2.117	–
CNYIEELLRQRARALKKGLA [Peptide 168]	2.573	–
CNYIEELRRQLARALHKGLA [Peptide 47]	2.323	hemolytic activity (erythrocytes): low hemolytic activity
CNYIEELRRQLARALHKWLA [Peptide 173]	8.148	–
CNYIEELRRQLARALKKGLA [Peptide 142]	3.734	–
CNYIEELRRQLARAWHKGLA [Peptide 174]	2.056	–
CNYIEELRRQWARALHKGLA [Peptide 175]	1.824	–
CNYIEELWRQLARALHKGLA [Peptide 176]	2.771	–

Compound	% Hemolysis Mean (erythrocytes; 1 h) [%]	other results
CNYIKELLRQKLRASHLGLA [Peptide 171]	2.383	–
CNYITELKRQLARALHKGLA [Peptide 143]	3.450	–
CNYITELKRQLARALKKGLA [Peptide 144]	3.597	–
CNYITELLRQKARALHKGLA [Peptide 161]	1.902	–
CNYITELLRQKARALKKGLA [Peptide 163]	2.478	–
CNYITELLRQLARAKKKGLA [Peptide 160]	2.512	–
CNYITELLRQLARANKKGLA [Peptide 154]	2.564	–
CNYITELLRQLARAQKKGLA [Peptide 155]	5.817	–
CNYITELLRQLARARHKGLA [Peptide 156]	3.321	–
CNYITELLRQLARARKKGLA [Peptide 158]	3.829	–
CNYITELLRQLARASHKGLA [Peptide 147]	2.555	–
CNYITELLRQLARASKKGLA [Peptide 39]	–	hemolytic activity (erythrocytes): low hemolytic activity
CNYITELLRQLARATHKGLA [Peptide 150]	3.777	–
CNYITELLRQLARATKKGLA [Peptide 152]	3.984	–
CNYITELLRQRARALHKGLA [Peptide 165]	2.659	–
CNYITELLRQRARALKKGLA [Peptide 167]	2.642	–
CNYITELRRQKARASKLGLAR [CNY21H-K]	–	antibacterial effect in RDA (P. aeruginosa 27.1): larger anti-bacterial effect; pore formation and leakage of liposomes, order of efficiency [2]: CNY21H-L≈CNY21H-K>CNY21>CNY21H-P≧CNY21 R-S
CNYITELRRQKLRLLHKGLA [Peptide 170]	2.211	–
CNYITELRRQKLRLLKKGLA [Peptide 169]	2.512	–
CNYITELRRQLARALHKGLA [Peptide 140]	5.145	–
CNYITELRRQLARALKKGLA [Peptide 141]	17.716	–
CNYITELRRQLARASLLGLAR [CNY21H-L]	–	antibacterial effect in RDA (P. aeruginosa 27.1): larger anti-bacterial effect; pore formation and leakage of liposomes, order of efficiency [2]: CNY21H-L≈CNY21H-K>CNY21>CNY21H-P≧CNY21 R-S
CNYITELRRQPARASPLGLAR [CNY21H-P]	–	antibacterial effect in RDA (P. aeruginosa 27.1): no antimicrobial effects; pore formation and leakage of liposomes, order of efficiency [2]: CNY21H-L≈CNY21H-K>CNY21>CNY21H-P≧CNY21 R-S
CNYIWELRRQLARALHKGLA [Peptide 177]	3.175	–
